What was measured:
[1] = biological target: T1, ATP-binding cassette sub-family C member 4 (Homo sapiens, UniProt O15439); assay: TP_TRANSPORTER: inhibition of E217betaG uptake in membrane vesicles from MRP4-expressing HEK-293 cells; format: functional, cell membranes, HEK293, Membrane vesicle
T1 sequence (O15439 whole entry): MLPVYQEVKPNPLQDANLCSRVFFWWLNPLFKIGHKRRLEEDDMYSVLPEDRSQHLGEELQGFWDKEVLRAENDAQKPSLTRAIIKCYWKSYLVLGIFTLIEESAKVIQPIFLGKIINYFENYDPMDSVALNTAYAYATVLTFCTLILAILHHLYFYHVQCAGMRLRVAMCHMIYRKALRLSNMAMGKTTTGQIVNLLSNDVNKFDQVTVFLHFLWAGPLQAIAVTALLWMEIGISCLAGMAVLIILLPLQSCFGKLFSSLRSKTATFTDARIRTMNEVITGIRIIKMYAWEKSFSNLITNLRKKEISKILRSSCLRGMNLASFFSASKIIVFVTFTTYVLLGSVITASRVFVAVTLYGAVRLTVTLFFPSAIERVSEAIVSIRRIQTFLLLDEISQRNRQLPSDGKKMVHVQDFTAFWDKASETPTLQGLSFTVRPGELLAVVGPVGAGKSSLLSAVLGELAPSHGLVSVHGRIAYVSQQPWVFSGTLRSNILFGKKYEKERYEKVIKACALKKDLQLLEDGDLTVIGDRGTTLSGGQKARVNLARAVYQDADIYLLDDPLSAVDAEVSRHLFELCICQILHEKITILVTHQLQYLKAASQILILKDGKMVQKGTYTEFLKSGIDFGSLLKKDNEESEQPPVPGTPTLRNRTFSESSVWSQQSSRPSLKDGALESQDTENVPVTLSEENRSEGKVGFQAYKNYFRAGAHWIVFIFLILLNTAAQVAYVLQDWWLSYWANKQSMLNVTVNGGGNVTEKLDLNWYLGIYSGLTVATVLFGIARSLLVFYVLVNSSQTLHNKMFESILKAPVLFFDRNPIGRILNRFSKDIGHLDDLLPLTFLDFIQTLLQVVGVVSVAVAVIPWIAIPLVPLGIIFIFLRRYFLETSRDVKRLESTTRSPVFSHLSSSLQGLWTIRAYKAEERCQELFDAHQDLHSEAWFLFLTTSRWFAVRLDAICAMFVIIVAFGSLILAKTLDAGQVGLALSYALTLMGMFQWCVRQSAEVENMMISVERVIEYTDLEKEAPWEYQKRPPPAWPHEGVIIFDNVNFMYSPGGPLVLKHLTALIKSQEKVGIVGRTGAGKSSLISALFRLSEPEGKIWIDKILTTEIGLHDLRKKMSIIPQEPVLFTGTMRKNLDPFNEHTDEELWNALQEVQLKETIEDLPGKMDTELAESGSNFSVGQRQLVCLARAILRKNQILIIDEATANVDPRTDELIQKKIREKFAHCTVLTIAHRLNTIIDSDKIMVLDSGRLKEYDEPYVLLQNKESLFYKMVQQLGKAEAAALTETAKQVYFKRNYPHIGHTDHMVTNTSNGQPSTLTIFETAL

[2] = biological target: T1, ATP-binding cassette sub-family C member 4; assay: TP_TRANSPORTER: inhibition of E217betaG uptake in membrane vesicles from MRP4-expressing Sf9 cells; format: functional, cell membranes, Membrane vesicle
[3] = biological target: T1, ATP-binding cassette sub-family C member 4; assay: TP_TRANSPORTER: inhibition of DHEAS in membrane vesicles from MRP4-expressing Sf9 cells; format: functional, cell membranes, Membrane vesicle

| SMILES | IC50 [1] [µM] | IC50 [2] [µM] | IC50 [3] [µM] |
| --- | --- | --- | --- |
| C[C@H](CCC(=O)NCC(=O)O)[C@H]1CC[C@H]2[C@@H]3CC[C@@H]4C[C@H](OS(=O)(=O)O)CC[C@]4(C)[C@H]3CC[C@]12C | 10 |  |  |
| C[C@]12CC[C@@H]3c4ccc(O[C@@H]5O[C@H](C(=O)O)[C@@H](O)[C@H](O)[C@H]5O)cc4CC[C@H]3[C@@H]1CC[C@@H]2O |  | 120 | 80 |
| C[C@H](CCC(=O)NCCS(=O)(=O)O)C1CC[C@H]2[C@@H]3CC[C@@H]4C[C@H](OS(=O)(=O)O)CC[C@]4(C)[C@H]3CC[C@]12C (stereo partly drawn) | 10 |  |  |
| C[C@]12CC[C@H](O[C@@H]3O[C@H](C(=O)O)[C@@H](O)[C@H](O)[C@H]3O)CC1=CC[C@@H]1[C@@H]2CC[C@]2(C)C(=O)CC[C@@H]12 |  | 80 | 80 |
| C[C@H](CCC(=O)O)[C@H]1CC[C@H]2[C@@H]3CC[C@@H]4C[C@H](OS(=O)(=O)O)CC[C@]4(C)[C@H]3CC[C@]12C | 10 |  |  |
| C[C@]12CC[C@@H]3c4ccc(OS(=O)(=O)O)cc4CC[C@H]3[C@@H]1CC[C@H]2O |  | 50 | 70 |
| C[C@]12CC[C@@H]3c4ccc(O)cc4CC[C@H]3[C@@H]1CC[C@@H]2O[C@@H]1O[C@H](C(=O)O)[C@@H](O)[C@H](O)[C@H]1O [ESTRADIOL 17B GLUCURONIDE] |  |  | 30 |
| C[C@]12CC[C@@H]3c4ccc(OS(=O)(=O)O)cc4CC[C@H]3[C@@H]1CC[C@@H]2OS(=O)(=O)O [ESTRADIOL DISULFATE] |  | 2 | 0.2 |
| C[C@]12CC[C@@H]3c4ccc(OS(=O)(=O)O)cc4CC[C@H]3[C@@H]1CCC2=O [ESTRONE SULFURIC ACID] |  | 45 | 95 |
| C[C@H](CCC(=O)NCC(=O)O)[C@H]1CC[C@H]2[C@@H]3[C@H](O)C[C@@H]4C[C@H](O)CC[C@]4(C)[C@H]3C[C@H](O)[C@]12C [GLYCOCHOLIC ACID] | 400 |  |  |
| C[C@H](CCC(=O)NCCS(=O)(=O)O)[C@H]1CC[C@H]2[C@@H]3[C@H](O)C[C@@H]4C[C@H](O)CC[C@]4(C)[C@H]3CC[C@]12C [TAUROCHENODEOXYCHOLATE] | 55 |  |  |
| C[C@H](CCC(=O)NCCS(=O)(=O)O)[C@H]1CC[C@H]2[C@@H]3CC[C@@H]4C[C@H](O)CC[C@]4(C)[C@H]3C[C@H](O)[C@]12C [TAURODEOXYCHOLIC ACID] | 60 |  |  |
| C[C@H](CCC(=O)NCCS(=O)(=O)O)[C@H]1CC[C@H]2[C@@H]3CC[C@@H]4C[C@H](O)CC[C@]4(C)[C@H]3CC[C@]12C [TAUROLITHOCHOLIC ACID] | 20 |  |  |
